Reference: PMC12514245, “Impaired migration and lung invasion of human melanoma by a novel small molecule targeting the transmembrane domain of death receptor p75^NTR” (EMBO Molecular Medicine, 2025)
Several values for one entry are separate records, joined by “and”; a condition that tells them apart may be missing. Equal values may be shown once.

How the values were obtained:
[1] = molecular target: T1, fascin/p75^NTR interaction (Homo sapiens, UniProt P08138); assay: Co-immunoprecipitation of fascin with p75NTR in A875 cells; assay type: cell-based; details: 1 μM; NGF 100 ng/ml
T1 construct: endogenous in cells; host or cells: A875-NT (and A875 sh-p75NTR knock-down control)
T1 sequence (P08138 29-427): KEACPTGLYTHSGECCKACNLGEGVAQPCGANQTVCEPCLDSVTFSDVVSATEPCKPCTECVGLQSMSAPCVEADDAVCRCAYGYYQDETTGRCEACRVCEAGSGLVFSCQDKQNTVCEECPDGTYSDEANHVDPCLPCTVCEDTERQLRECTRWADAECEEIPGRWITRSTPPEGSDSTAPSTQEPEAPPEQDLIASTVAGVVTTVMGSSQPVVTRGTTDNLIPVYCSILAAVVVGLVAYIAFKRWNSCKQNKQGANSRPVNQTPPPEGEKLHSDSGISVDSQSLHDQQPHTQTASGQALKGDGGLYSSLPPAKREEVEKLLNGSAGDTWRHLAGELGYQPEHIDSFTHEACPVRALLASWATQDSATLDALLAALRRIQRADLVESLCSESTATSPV
Procedure: For co-immunoprecipitation analysis of p75^NTR/fascin interactions, A875 sh-p75^NTR and A875-NT cells were plated in a 10 cm tissue culture dish at a confluency of 3 × 10^6 cells/dish in normal growth media. Twenty-four hours after plating, the cells were treated with 1 μM 4A22 and NGF (100 ng/ml) for 12 h prior to harvest and lysis in lysis buffer (50 mM Tris/HCl pH 7.5, 1 mM EDTA, 270 mM Sucrose, 1% (v/v) Triton X-100, 0.1% (v/v) 2-mercaptoethanol and 60 mM n-Octyl-β-D glucopyranoside) containing protease inhibitor cocktail. The cellular extracts were then centrifuged at 4 °C top speed on a benchtop centrifuge for 1 min and the supernatant was collected. For immunoprecipitation, A875 cell extracts were incubated for 16 h at 4 °C on a rotating wheel with 0.8 μg of anti-p75^NTR antibody (ANT-007, Alomone) and then incubated with Sepharose protein-G beads (GE Healthcare). The beads were collected by brief centrifugation (2 min, 2500 rpm, 4 °C), washed three times with 1 ml of Wash Buffer (with composition same as the lysis buffer). After the last wash, pelleted beads were aspirated off the wash buffer followed by addition of Laemmli sample buffer and analysis by SDS–PAGE followed by Western Blot using anti-fascin antibody (MA5-11483, Invitrogen).

[2] = tested on: A875-NT melanoma xenograft; assay: Melanoma lung invasion assay, A875-NT, treatment from one day before cell injection; assay type: in vivo, SCID mice; details: for Photons/second/ mouse/week, Average: group average; for Photons/second/ mouse/week: single mouse
Procedure: Next, to assess the potential inhibitory effects of Np75-4A22 on melanoma cell migration and tissue invasion in vivo, we utilized the highly metastatic human A875 xenograft model. […] Initially, to mimic metastatic dissemination from the primary tumor site, A875-NT or A875-shp75 cells expressing GFP-Luc (for live-monitoring of tumor growth) were injected intravenously in female SCID mice 24 h following a single oral administration of Np75-A422 (200 mg/kg) or drug vehicle alone. Mice received 3 cycles of Np75-A422 (200 mg/kg/day) following a 5 day on and 2 days off drug schedule for a total of 3 weeks (Fig. 8A). Metastatic spread to the lungs was monitored weekly by luciferase activity using the Xenogen IVIS-200 Optical in vivo luciferase imaging system and mice were sacrificed after the third week. […] In addition, assessment of the metastatic spread was also quantified by histological assessment of non-consecutive lung sections stained for human nucleolin to detect the tumor cells. […] In addition, and as expected, high expression of p75^NTR was detected in lung tumors established by A875-NT cells but was negligible in tumors derived from A875-shp75 cells (Fig. EV10).
Eight-week-old female SCID mice (Charles River Laboratories, Shrewsbury, MA, USA) were housed in groups of three to five and maintained on a 12-h light/dark schedule with a temperature of 22 °C ± 1 °C and a relative humidity of 50% ± 5%. Food and water were available ad libitum. This research study was reviewed and approved by the University of Calgary Animal Care Committee (AC22-0054) and McGill University (AUP-JGH-8269) and adheres to established ethical principles and guidelines. A875-GFPLuc (A875-NT) or A875-GFPLuc shp75 (A875-shp75) cells harvested using Puck’s EDTA were resuspended in PBS and injected intravenously into SCID mice (5 × 10^5 cells/200 μl per mouse). Np75-4A22 was dissolved in 0.5% sodium carboxymethyl cellulose (NaCMC) in reverse osmosis H2O and administered by oral gavage at 200 mg/kg/day starting one day prior to intravenous (tail vein) injection of tumor cells and continued for 3 1-week cycles (cycle: 5 days on drug, 2 days off drug). Tumor spread to the lung was monitored weekly by luciferase activity using the Xenogen IVIS-200 Optical in vivo luciferase imaging system as described previously (Lun et al, [2016]) and by immunohistochemistry (IHC) at designated time points. IHC was performed after formalin fixation, paraffin embedding and sectioning of the lungs, using a human-specific mouse polyclonal nucleolin antibody (1:500 dilution) and detected using Dako liquid DAB+ Substrate Chromogen System (Dako: k3468, California, USA) followed by a hematoxylin counterstain (Sigma, Oakville, ON, Canada). Sections were mounted and imaged on an Olympus phase contrast microscope (Olympus Life Science, Tokyo, Japan). For immunofluorescence, sections were stained with anti-human nucleolin and anti-human p75NTR antibodies (1:1000 dilution), subsequently detected with 1:200 dilutions of Alexa Fluor™ 488 Goat anti-Mouse IgG (H + L) Highly Cross-Adsorbed Secondary Antibody and Alexa Fluor™ 568 Goat anti-Rabbit IgG (H + L) Cross-Adsorbed Secondary Antibody. Sections were further stained with DAPI to detect all nuclei. Between each treatment, TBS Automation Wash Buffer (Biocare Medical TWB945M) was employed. Images were taken with LSM800 confocal microscope and ZEN system.

## Cc1cccc(-c2cncc(Nc3ccc(Br)c(Cl)c3Cl)n2)c1C [Np75-4A22]
[1]
  NGF-stimulated fascin/p75NTR interaction: completely suppressed the effect of NGF
[2]; A875-NT, 1wk
  Photons/second/ mouse/week, Average: 9.39E+04 Photons/second
  Photons/second/ mouse/week: 8.62E+04 Photons/second and 1.03E+05 Photons/second and 1.11E+05 Photons/second and 1.02E+05 Photons/second and 1.26E+05 Photons/second and 1.23E+05 Photons/second and 7.03E+04 Photons/second and 6.52E+04 Photons/second and 7.29E+04 Photons/second and 7.98E+04 Photons/second
[2]; A875-NT, 2wks
  Photons/second/ mouse/week, Average: 1.01E+05 Photons/second
  Photons/second/ mouse/week: 9.63E+04 Photons/second and 1.02E+05 Photons/second and 1.27E+05 Photons/second and 8.86E+04 Photons/second and 1.04E+05 Photons/second and 1.23E+05 Photons/second and 9.01E+04 Photons/second and 9.59E+04 Photons/second and 8.45E+04 Photons/second and 9.64E+04 Photons/second
[2]; A875-NT, 3wks
  Photons/second/ mouse/week: 1.77E+05 Photons/second and 1.53E+05 Photons/second and 2.03E+05 Photons/second and 2.34E+05 Photons/second and 2.96E+05 Photons/second and 2.73E+05 Photons/second and 1.26E+05 Photons/second and 2.18E+05 Photons/second and 2.30E+05 Photons/second and 1.32E+05 Photons/second
[2]; A875-NT, average of 5 non-consecutive slides per individual mouse
  Metastatic Nodules/Lung Section, Average: 0.6 and 0.2 and 0.4 and 1 and 0
[2]; A875-NT, average of 5 slides of one mouse
  Cancer Cells/Lung Section, Average per mouse: 5.4 and 2 and 18.4 and 8 and 21.4 and 2.2 and 0
[2]; A875-NT, average of all mice
  Cancer Cells/Lung Section, group Average: 6.16
[2]; A875-NT, average over all mice of the group
  Metastatic Nodules/Lung Section, group Average: 0.36
[2]; A875-NT, individual mouse, slide 1 of 5 non-consecutive slides/mouse
  Metastatic Nodules/Lung Section, Slide 1: 0 and 1
[2]; A875-NT, individual mouse, slide 2 of 5 non-consecutive slides/mouse
  Metastatic Nodules/Lung Section, Slide 2: 1 and 0
[2]; A875-NT, individual mouse, slide 3 of 5 non-consecutive slides/mouse
  Metastatic Nodules/Lung Section, Slide 3: 0 and 1
[2]; A875-NT, individual mouse, slide 4 of 5 non-consecutive slides/mouse
  Metastatic Nodules/Lung Section, Slide 4: 0 and 1 and 2
[2]; A875-NT, individual mouse, slide 5 of 5 non-consecutive slides/mouse
  Metastatic Nodules/Lung Section, Slide 5: 2 and 1 and 0
[2]; oral 200 mg/kg/day, 3 cycles 5 days on/2 days off
  lung tumors (luciferase imaging): dramatic reduction of lung tumors
[2]; oral 200 mg/kg/day, 3 weeks
  lung tumors by histology (human nucleolin; cancer cells and lesions): marked reduction
